From EP4772507A1, “AZAINDOLE COMPOUND AND MEDICAL DRUG” (Nippon Shinyaku Co., Ltd., priority 2023, dated 2025)

Key:
[1] = biological target: T1, C-terminal catalytic domain of MALT1 (amino acid residues 329-824) (Homo sapiens, UniProt Q9UDY8); experiment: MALT1 protease inhibitory activity (enzyme activity inhibition assay, fluorogenic substrate); assay type: biochemical; conditions: substrate Ac-Leu-Arg-Ser-Arg-AMC 50 µM; 30°C for 2 hours; fluorescence
T1 construct: C-terminal catalytic domain of MALT1 (amino acid residues 329-824)
T1 sequence (Q9UDY8 329-824): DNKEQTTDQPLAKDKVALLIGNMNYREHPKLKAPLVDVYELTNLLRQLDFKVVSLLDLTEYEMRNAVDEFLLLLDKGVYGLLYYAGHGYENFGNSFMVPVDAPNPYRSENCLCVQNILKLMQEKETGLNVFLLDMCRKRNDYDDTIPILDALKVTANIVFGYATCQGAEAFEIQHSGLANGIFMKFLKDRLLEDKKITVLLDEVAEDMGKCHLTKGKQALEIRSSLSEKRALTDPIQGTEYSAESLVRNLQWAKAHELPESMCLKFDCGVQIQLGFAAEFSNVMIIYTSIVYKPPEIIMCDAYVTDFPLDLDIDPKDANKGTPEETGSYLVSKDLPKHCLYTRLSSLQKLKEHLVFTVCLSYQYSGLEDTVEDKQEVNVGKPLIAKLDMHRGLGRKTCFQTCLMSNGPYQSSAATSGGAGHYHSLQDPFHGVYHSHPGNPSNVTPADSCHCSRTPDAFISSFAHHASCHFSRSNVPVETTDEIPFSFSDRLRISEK
Procedure: To evaluate the enzyme inhibitory activity of a test substance against MALT1, an enzyme activity inhibition assay was conducted using the C-terminal catalytic domain of MALT1 (amino acid residues 329-824).
A test substance was prepared at a concentration of 10 mM in dimethyl sulfoxide (DMSO) and further diluted with DMSO to obtain final concentrations of 1000, 100, 10, 1, and 0.1 µM. The solutions were further diluted 25-fold with an assay buffer to prepare final test substance solutions. The composition of the assay buffer was 200 mM Tris/HCl HEPES (pH 7.5), 0.8 M Na citrate, 100 µM DTT, and 0.05% CHAPS.
The test substance solution was added to a 384-well black plate (#6007270, PerkinElmer) in an amount of 5 µL per well (n = 2; final concentrations of 10000, 1000, 100, 10, 1, and 0.1 nM), followed by the addition of 10 µL of MALT1 enzyme and finally 5 µL of a substrate solution (Ac-Leu-Arg-Ser-Arg-AMC, Peptide Institute, Inc.; final concentration in the reaction mixture: 50 µM), and after stirring, the mixture was allowed to react at 30°C for 2 hours. Fluorescence (excitation: 380 nm, emission: 460 nm) was detected using a microplate reader (EnVision, PerkinElmer).
Using the measurement data, non-linear regression analysis based on a 2-parameter logistic model was performed with Spotfire (PerkinElmer) to calculate IC50.

[2] = test system: HEK293/API2-MALT1/NF-κB reporter cells; experiment: Inhibition of reporter activity in HEK293/API2-MALT1/NF-κB reporter cells; assay type: cell-based; conditions: Homo sapiens, 24 hours with test substance, One-glo luminescence
Procedure: The API2-MALT1 fusion protein, expressed in MALT lymphoma, is known to constitutively activate the NF-κB pathway. To evaluate the inhibitory effect of the test substance on the NF-κB pathway in cells, a reporter activity inhibition test was conducted using HEK293/API2-MALT1/NF-κB reporter cells.
(§1) The test substance was prepared at a concentration of 10 mM in dimethyl sulfoxide (DMSO) and further diluted with DMSO to each of concentrations of 1000, 300, 100, and 10 µM. The solutions were further diluted 100-fold with DMEM medium containing 10% FBS to prepare test substance solutions.
HEK293/API2-MALT1/NF-κB reporter cells and 293T/CMV reporter cells (used as a negative control) were cultured in DMEM medium containing 10% FBS. Into a 384-well plate (#781080, Greiner), 6,000 cells were seeded in 30 µL per well, and after culturing for 24 hours, 3.3 µL of the adjusted test substance solution was added thereto (final concentrations: 10,000, 1,000, 100, and 10 nM). After culturing for 24 hours at 37°C in a 5% CO2 incubator, 33 µL of One-glo (Promega) was added to each well. After a 5-minute incubation at room temperature, luminescence was detected using a microplate reader (EnVision, PerkinElmer).
Using the measurement data, non-linear regression analysis was performed with the SAS system (SAS Institute Inc.) to estimate IC50.

[3] = Central nervous system (CNS) penetration study in mice; assay type: in vivo; conditions: female, BALB/cCrSlc, mouse, ip, 30 mg/kg intraperitoneally, three hours later, cerebrum and plasma by LC-MS/MS, read-out: Brain-to-plasma concentration ratio (Kp value)
Procedure: To evaluate the central nervous system (CNS) penetration of a test substance, a central nervous system penetration study was conducted using mice.
Six-week-old female BALB/cCrSlc mice (Japan SLC) were used. The test substance suspended in 0.5% methylcellulose was intraperitoneally administered to mice at a dose of 30 mg/kg. Three hours later, blood was collected from the abdominal vena cava under isoflurane anesthesia, and plasma was obtained by centrifugation. After exsanguination from the abdominal vena cava, the cerebrum was collected.
The drug concentrations of the collected plasma and cerebrum were measured by LC-MS/MS. To determine the brain penetration of the drug, the brain-to-plasma concentration ratio (Kp value) was calculated.

SU-DHL-4 cell lines = experiment: Proliferation inhibition test, GCB-DLBCL cell line SU-DHL-4 (negative control line); assay type: cell-based; conditions: Homo sapiens; SU-DHL-4 (GCB-DLBCL, NF-κB pathway-independent, negative control); 96 hours; Cell Counting Kit-8; read-out: Proliferation inhibitory activity against SU-DHL-4 IC50
Procedure: (§2) In ABC-DLBCL cell lines, the NF-κB pathway is constitutively activated due to mutations in the B-cell receptor pathway. To evaluate the proliferation inhibitory activity associated with the MALT1 inhibitory activity of the test substance, a proliferation inhibition test was conducted using ABC-DLBCL cell lines.
as §1, with “3,000, 1,000,” for “1000,”, “100, 30,” for “100,”, “IMDM” for “DMEM”
(§3) OCI-Ly3 cell lines (ABC-DLBCL, NF-κB pathway-dependent) were cultured in IMDM containing 10% FBS, and SU-DHL-4 cell lines (GCB-DLBCL, NF-κB pathway-independent, used as a negative control) were cultured in RPMI-1640 containing 10% FBS. Into a 96-well plate, 2,000 cells of the OCI-Ly3 cell line and 4,000 cells of the SU-DHL-4 cell line were seeded in 100 µL per well, and 11 µL of the adjusted test substance solution was added thereto (final concentrations: 10,000, 3,000, 1,000, 300, 100, 30, and 10 nM). After 96 hours of incubation at 37°C in a 5% CO2 incubator, 10 µL of Cell Counting Kit-8 (Dojindo Laboratories) was added to each well. After 4 hours of incubation at 37°C, absorbance at 450 nm was detected using a microplate reader (EnVision, PerkinElmer).
(§4) Using the measurement data, non-linear regression analysis based on a 2-parameter logistic model was performed with Spotfire (PerkinElmer) to estimate IC50 values.

OCI-Ly3 cell lines = experiment: Proliferation inhibition test, ABC-DLBCL cell line OCI-Ly3; assay type: cell-based; conditions: Homo sapiens; OCI-Ly3 (ABC-DLBCL, NF-κB pathway-dependent); 96 hours; Cell Counting Kit-8; read-out: Proliferation inhibitory activity against OCI-Ly3 IC50
Procedure: as §2
as §1, with “3,000, 1,000,” for “1000,”, “100, 30,” for “100,”, “IMDM” for “DMEM”
as §3, §4

Compound: C[C@@H]1CC(C(=O)c2cn(C3COC3)c3nc(-n4nccn4)c(Cl)cc23)C[C@@H](C)N1c1ncc(F)cc1I (stereo partly drawn) [Example 1, [5-chloro-1-(oxetan-3-yl)-6-(2H-1,2,3-triazol-2-yl)-1H-pyrrolo[2,3-b]pyridin-3-yl][(2R,6R)-1-(5-fluoro-3-iodopyridin-2-yl)-2,6-dimethylpiperidin-4-yl]methanone]
- IC50 [1]: 45 nM
- IC50 [2]: 170 nM
- Kp at 3 h [3]: 1.6
- IC50 (SU-DHL-4 cell lines): 5400 nM
- IC50 (OCI-Ly3 cell lines): 620 nM

Compound: C[C@@H]1CC(C(=O)c2cn(C)c3nc(-n4nccn4)c(Cl)cc23)C[C@@H](C)N1c1ncc(F)cc1I (stereo partly drawn) [Example 2, [5-chloro-1-methyl-6-(2H-1,2,3-triazol-2-yl)-1H-pyrrolo[2,3-b]pyridin-3-yl][(2R,6R)-1-(5-fluoro-3-iodopyridin-2-yl)-2,6-dimethylpiperidin-4-yl]methanone]
- IC50 [1]: 18 nM
- IC50 [2]: 60 nM
- Kp at 3 h [3]: 1.2
- IC50 (SU-DHL-4 cell lines): 7200 nM
- IC50 (OCI-Ly3 cell lines): 300 nM

Compound: C[C@@H]1CC(C(=O)c2cn(CC#N)c3nc(-n4nccn4)c(Cl)cc23)C[C@@H](C)N1c1ncc(F)cc1I (stereo partly drawn) [Example 3, {5-chloro-3-[(2R,6R)-1-(5-fluoro-3-iodopyridin-2-yl)-2,6-dimethylpiperidin-4-carbonyl]-6-(2H-1,2,3-triazol-2-yl)-1H-pyrrolo[2,3-b]pyridin-1-yl}acetonitrile]
- IC50 [1]: 43 nM
- IC50 [2]: 200 nM
- Kp at 3 h [3]: 0.73
- IC50 (SU-DHL-4 cell lines): 6300 nM
- IC50 (OCI-Ly3 cell lines): 580 nM

Compound: CC(=O)N1CC(n2cc(C(=O)C3C[C@@H](C)N(c4ncc(F)cc4I)[C@H](C)C3)c3cc(Cl)c(-n4nccn4)nc32)C1 (stereo partly drawn) [Example 5, 1-(3-{5-chloro-3-[(2R,6R)-1-(5-fluoro-3-iodopyridin-2-yl)-2,6-dimethylpiperidin-4-carbonyl]-6-(2H-1,2,3-triazol-2-yl)-1H-pyrrolo[2,3-b]pyridin-1-yl}azetidin-1-yl)ethan-1-one]
- IC50 [1]: 35 nM
- IC50 [2]: 160 nM
- Kp at 3 h [3]: 0.12
- IC50 (SU-DHL-4 cell lines): 3600 nM
- IC50 (OCI-Ly3 cell lines): 310 nM

Compound: C[C@@H]1CC(C(=O)c2cn(C3CC3)c3nc(-n4nccn4)c(Cl)cc23)C[C@@H](C)N1c1ncc(F)cc1I (stereo partly drawn) [Example 16, [5-chloro-1-cyclopropyl-6-(2H-1,2,3-triazol-2-yl)-1H-pyrrolo[2,3-b]pyridin-3-yl][(2R,6R)-1-(5-fluoro-3-iodopyridin-2-yl)-2,6-dimethylpiperidin-4-yl]methanone]
- IC50 [1]: 310 nM
- Kp at 3 h [3]: 0.28
- IC50 (SU-DHL-4 cell lines): 9700 nM
- IC50 (OCI-Ly3 cell lines): 720 nM

Compound: Cn1cc(C(=O)c2cnn(-c3ccnc4sccc34)c2C(F)(F)F)c2cc(Cl)c(-n3nccn3)nc21 [Example 24, [5-chloro-1-methyl-6-(2H-1,2,3-triazol-2-yl)-1H-pyrrolo[2,3-b]pyridin-3-yl][1-(thieno[2,3-b]pyridin-4-yl)-5-(trifluoromethyl)-1H-pyrazol-4-yl]methanone]
- IC50 [1]: 12 nM
- IC50 [2]: 130 nM
- IC50 (SU-DHL-4 cell lines): 9100 nM
- IC50 (OCI-Ly3 cell lines): 180 nM

Compound: O=C(c1cnn(-c2cncc3sccc23)c1C(F)(F)F)c1cn(C2COC2)c2nc(-n3nccn3)c(Cl)cc12 [Example 25, [5-chloro-1-(oxetan-3-yl)-6-(2H-1,2,3-triazol-2-yl)-1H-pyrrolo[2,3-b]pyridin-3-yl][1-(thieno[2,3-c]pyridin-4-yl)-5-(trifluoromethyl)-1H-pyrazol-4-yl]methanone]
- IC50 [1]: 19 nM
- IC50 [2]: 180 nM
- IC50 (SU-DHL-4 cell lines): 9000 nM
- IC50 (OCI-Ly3 cell lines): 440 nM

Compound: Cn1cc(C(=O)c2cnn(-c3cccn4nccc34)c2C(F)(F)F)c2cc(Cl)c(-n3nccn3)nc21 [Example 27, [5-chloro-1-methyl-6-(2H-1,2,3-triazol-2-yl)-1H-pyrrolo[2,3-b]pyridin-3-yl][1-(pyrazolo[1,5-a]pyridin-4-yl)-5-(trifluoromethyl)-1H-pyrazol-4-yl]methanone]
- IC50 [1]: 5.8 nM
- IC50 [2]: 280 nM
- IC50 (SU-DHL-4 cell lines): 7200 nM
- IC50 (OCI-Ly3 cell lines): 380 nM

Compound: O=C(c1cnn(-c2cccc3c(=O)[nH]ccc23)c1C(F)(F)F)c1cn(C2CCC2)c2nc(-n3nccn3)c(Cl)cc12 [Example 30, 5-{4-[5-chloro-1-cyclobutyl-6-(2H-1,2,3-triazol-2-yl)-1H-pyrrolo[2,3-b]pyridine-3-carbonyl]-5-(trifluoromethyl)-1H-pyrazol-1-yl}isoquinolin-1(2H)-one]
- IC50 [1]: 44 nM
- IC50 [2]: 500 nM
- IC50 (SU-DHL-4 cell lines): > 10000 nM
- IC50 (OCI-Ly3 cell lines): 870 nM

Compound: Cn1cc(C(=O)c2cnn(-c3cccn4c(=O)cccc34)c2C(F)(F)F)c2cc(Cl)c(-n3nccn3)nc21 [Example 31, 9-{4-[5-chloro-1-methyl-6-(2H-1,2,3-triazol-2-yl)-1H-pyrrolo[2,3-b]pyridine-3-carbonyl]-5-(trifluoromethyl)-1H-pyrazol-1-yl}-4H-quinolizin-4-one]
- IC50 [1]: 25 nM
- IC50 [2]: 73 nM
- IC50 (SU-DHL-4 cell lines): > 10000 nM
- IC50 (OCI-Ly3 cell lines): 150 nM

Compound: COc1nc2c(cc1Cl)c(C(=O)c1cnn(-c3cncc4c(F)cccc34)c1C(F)(F)F)cn2C [Example 32, (5-chloro-6-methoxy-1-methyl-1H-pyrrolo[2,3-b]pyridin-3-yl)[1-(8-fluoroisoquinolin-4-yl)-5-(trifluoromethyl)-1H-pyrazol-4-yl]methanone]
- IC50 [1]: 54 nM
- IC50 [2]: 280 nM
- IC50 (SU-DHL-4 cell lines): > 10000 nM
- IC50 (OCI-Ly3 cell lines): 140 nM
